We go through 33 compounds from ChEMBL document CHEMBL3244296, “3-Aryl- and 3-hydroxy-3-aryloctahydropyrido[2,1-c][1,4]oxazines. Synthesis, stereochemistry, and central nervous system pharmacological actions” (J Med Chem, 1978).

Molecules are shown by their SMILES. Active and inactive are the calls of the source. No cut-off for these calls is given here.

For series [1], the system named is Mus musculus. Briefly: Anticonvulsant activity in mouse assessed as protection against maximal electroshock-induced seizures at <= 300 mg/kg, ip. It is filed as functional, organism-based. On the set-up: dose 300 mg/kg.
Series [2] relates to Mus musculus. Description: Reduction in spontaneous locomotor activity in mouse at 40 mg/kg, ip measured for 30 mins. In kind it is functional, organism-based. Also noted: dose 40 mg/kg.
Series [3] has as its system Mus musculus. Description: Anticonvulsant activity in mouse assessed as protection against subcutaneous metrazol-induced seizures at <= 300 mg/kg, ip. In kind it is functional, organism-based. On the set-up: dose 300 mg/kg.
Series [4] in a line: Toxicity in ip dosed mouse assessed as lethality. In kind it is organism-based. The note with it: in vivo.
Series [5] deals with Mus musculus. Briefly: Stimulation of spontaneous locomotor activity in mouse at 20 mg/kg, ip measured for 30 mins relative to control. It is filed as functional.
In series [6] the test system is Mus musculus. Description: Anticonvulsant activity in ip dosed mouse assessed as time to reach peak effect. In kind it is functional.
Series [7] relates to Mus musculus. Briefly: Anticonvulsant activity in ip dosed mouse assessed as protection against maximal electroshock-induced seizures measured as lowest dose required for activity. It is filed as functional. The note with it: read-out: MED.
Series [8] has as its system Mus musculus. Description: Neurotoxicity in ip dosed mouse assessed as time to reach peak effect by rotarod test. It is filed as toxicity, organism-based. As to conditions: in vivo. Background: In the rotarod test animals must keep their balance on a rotating rod.
The nature of series [9]: Neurotoxicity in ip dosed mouse by rotarod test. As to conditions: in vivo. In kind it is toxicity, organism-based.
In series [10] the test system is Rattus norvegicus. Description: Anorexic activity in ip dosed Sprague-Dawley rat assessed as dose required to reduce food intake by 50%. In kind it is functional.
Series [11] is described as follows: Protective index, ratio of TD50 for neurotoxicity in ip dosed mouse to ED50 for anticonvulsant activity in ip dosed mouse. It is filed as toxicity, organism-based. The note with it: in vivo, read-out: Ratio TD50/ED50.
Series [12] has as its system Rattus norvegicus. Briefly: Anorexic activity in Sprague-Dawley rat assessed as reduction in food intake at 10 to 40 mmol/kg, ip. It is filed as functional, organism-based.
The test system of series [13] is Mus musculus. Briefly: Anticonvulsant activity in ip dosed mouse assessed as protection against maximal electroshock-induced seizures. In kind it is functional. (Protection in the maximal electroshock model is a classic sign of anticonvulsant action.)
Series [14] deals with Rattus norvegicus. Description: Anorexic activity in Sprague-Dawley rat assessed as reduction in food intake at […], ip relative to control. It is filed as functional. Also noted: scale not given: the % may be the effect or the level left.
The subject of series [15] is Rattus norvegicus. Description: Toxicity in Sprague-Dawley rat assessed as lethality at 20 to 40 mg/kg, ip. In kind it is organism-based. On the set-up: dose 20-40 mg/kg, route intraperitoneal. As to conditions: in vivo.
The subject of series [16] is Mus musculus. Description: Anticonvulsant activity in ip dosed mouse assessed as protection against subcutaneous metrazol-induced seizures. In kind it is functional. The note with it: read-out: MED.
Series [17] concerns Rattus norvegicus. Description: Anorexic activity in Sprague-Dawley rat assessed as reduction in food intake at 5 to 20 mmol/kg, ip. In kind it is functional, organism-based.
For series [18], the system named is Mus musculus. Briefly: Reduction in spontaneous locomotor activity in mouse at 5 mg/kg, ip measured for 30 mins relative to control. In kind it is functional. Also noted: scale not given: the % may be the effect or the level left. As to conditions: route intraperitoneal.
Series [19] has as its system Mus musculus. Description: Reduction in spontaneous locomotor activity in mouse at 20 mg/kg, ip measured for 30 mins relative to control. Also noted: dose 20 mg/kg. It is filed as functional, organism-based.

As for `COc1ccc(C2(O)CN3CCCCC3CO2)cc1` (configuration not stated), the outcome in series [1] and in series [3] was inactive. Also, in [2], the outcome was Active.

In general, LD50 refers to the dose at which mortality reaches 50%. Regarding `Cl.OC1(c2ccc(C(F)(F)F)cc2)CN2CCCCC2CO1` (configuration not stated), in series [4], the LD50 is 468000 µmol/kg. Moreover, the outcome in [5] and in series [2] was Active. For the same compound, the Time in series [6] and in [8] was 0.5 h throughout. Also, in series [7], the minimal effective dose amounted to 100 mg/kg. Also, the result in series [3] was inactive.

In the case of `CC(=O)Nc1ccc(C2CN3CCCCC3CO2)cc1` (configuration not stated), the result in series [2] was Active.

Broadly, the TD50 is the dose at which the toxic effect under study appears in half of the subjects. For `Cl.OC1(c2ccccc2C(F)(F)F)CN2CCCCC2CO1` (configuration not stated), in series [9], the TD50 is 547000 µmol/kg. Also, the result in [2] was Active. The Time in series [6] and in series [8] was 0.5 h throughout. Moreover, in series [7], the minimal effective dose turned out to be 30 mg/kg. Also, in series [3], the result was inactive.

In the case of `Cc1ccc(C2CN3CCCCC3CO2)cc1` (configuration not stated), the outcome in series [1] and in series [3] was inactive. The outcome in series [2] was Active.

As for `CCNC(C)Cc1cccc(C(F)(F)F)c1.Cl` (configuration not stated) [FENFLURAMINE HYDROCHLORIDE], in series [10], the Activity was 16.8 mmol/kg.

Consider `O=[N+]([O-])c1ccc(C2(O)CN3CCCCC3CO2)cc1` (configuration not stated), for which, in series [2], the outcome was inactive.

`Cl.OC1(c2ccc(F)cc2)CN2CCCCC2CO1` (configuration not stated): in series [2], the outcome was Active. Moreover, the minimal effective dose in series [7] is 100 mg/kg. Also, in series [3], the outcome was inactive.

For `COc1cc(C2CN3CCCCC3CO2)cc(OC)c1OC` (configuration not stated), the outcome in [2] was Active.

On to `Brc1ccc(C2CN3CCCCC3CO2)cc1` (configuration not stated), for which the result in series [2] was Active.

A word on the ED50: it is the dose at which the effect has come halfway, by size or by number of responders. As for `Cl.FC(F)(F)c1cccc(C2CN3CCCCC3CO2)c1` (configuration not stated), the Activity in [10] stood at 55.9 mmol/kg. Moreover, in series [11], the selectivity ratio stood at 3.11. The result in series [12] and in [2] was Active. Further, the ED50 in series [13] was 84600 µmol/kg. Moreover, in series [9], the TD50 turned out to be 263000 µmol/kg. Also, the Time in series [6] and in [8] was 0.5 h in each case. In series [7], the minimal effective dose amounted to 30 mg/kg. Further, the outcome in series [3] was inactive.

For the compound `Cc1ccc(C2(O)CN3CCCCC3CO2)cc1.Cl` (configuration not stated), the outcome in series [2] was Active. The minimal effective dose in [7] was determined as 100 mg/kg. The outcome in [3] was inactive.

As for `CCC1(c2ccccc2)C(=O)N=C([O-])NC1=O.[Na+]` (configuration not stated) [PHENOBARBITAL SODIUM], the selectivity ratio in series [11] turned out to be 3.88. Also, the ED50 in series [13] is 85700 µmol/kg. Besides, the TD50 in series [9] was determined as 333000 µmol/kg. This compound also returned an Activity in series [5] (route intraperitoneal) of 215%.

On to `CC(=O)Oc1cccc(C2CN3CCCCC3CO2)c1` (configuration not stated), for which, in series [2], the result was inactive.

For the compound `Fc1ccc(C2CN3CCCCC3CO2)cc1` (configuration not stated), the outcome in series [1] and in series [3] was inactive. For the same compound, the outcome in series [2] was Active.

In the case of `COc1ccc(C2CN3CCCCC3CO2)cc1OC` (configuration not stated), the result in [2] was Active.

Turning to `COc1ccc(C2CN3CCCCC3CO2)cc1` (configuration not stated), the outcome in [2] was Active.

Take `CC(=O)Oc1cccc(C2(O)CN3CCCCC3CO2)c1` (configuration not stated): the outcome in series [2] was inactive.

On to `Cl.Clc1ccc(C2CN3CCCCC3CO2)cc1` (configuration not stated), for which the values for the Activity in series [14] and in series [15] were 40% and “Toxic”, respectively. In addition, the result in [12] and in series [2] was Active.

On to `COc1ccc(C2(O)CN3CCCCC3CO2)cc1OC.Cl` (configuration not stated), for which the outcome in series [1] was inactive. Further, the minimal effective dose in series [16] was 100 mg/kg. Moreover, the result in series [2] was Active.

For `COc1cc(C2(O)CN3CCCCC3CO2)cc(OC)c1OC.Cl` (configuration not stated), the result in series [1] was inactive. In addition, the minimal effective dose in series [16] stood at 300 mg/kg. The outcome in series [2] was Active.

Regarding `OC1(c2ccc(Cl)cc2)CN2CCCCC2CO1` (configuration not stated), in series [12], the result was inactive. For the same compound, the result in series [2] was Active.

`COc1cccc(C2(O)CN3CCCCC3CO2)c1.Cl` (configuration not stated): the result in [2] was Active. Further, the minimal effective dose in series [7] amounted to 100 mg/kg. The outcome in series [3] was inactive.

`OC1(c2ccc(Br)cc2)CN2CCCCC2CO1` (configuration not stated): in series [2], the result was Active.

Take `Cl.OC1(c2cccc(C(F)(F)F)c2)CN2CCCCC2CO1` (configuration not stated): the Activity in series [10] was found to be 29.6 mmol/kg. In addition, the selectivity ratio in series [11] worked out at 2.77. In series [13], the ED50 turned out to be 78700 µmol/kg. The TD50 in series [9] turned out to be 218000 µmol/kg. Also, the result in [2] and in series [17] was Active. Besides, the Time in [6] and in series [8] was 0.5 h throughout. Also, in series [7], the minimal effective dose was 30 mg/kg. Moreover, the result in series [3] was inactive.

Consider `CN(C)CCCN1c2ccccc2Sc2ccc(Cl)cc21.Cl` [CHLORPROMAZINE HYDROCHLORIDE], for which the Activity in series [18] was 83.6%.

As to `Oc1cccc(C2CN3CCCCC3CO2)c1` (configuration not stated), the outcome in series [19] was Active. Further, the outcome in series [2] was inactive.

As to `COc1cccc(C2CN3CCCCC3CO2)c1` (configuration not stated), the outcome in series [2] was Active.

Take `Oc1ccc(C2CN3CCCCC3CO2)cc1` (configuration not stated): the outcome in series [2] was Active.

With `Cl.OC1(c2ccccc2)CN2CCCCC2CO1` (configuration not stated), the outcome in series [2] was Active. Besides, the minimal effective dose in series [7] came out at 100 mg/kg. In addition, in series [3], the outcome was inactive.

As for `Cl.FC(F)(F)c1ccc(C2CN3CCCCC3CO2)cc1` (configuration not stated), the minimal effective dose is 300 mg/kg in series [16] and 30 mg/kg in series [7]. The TD50 in series [9] stood at 408000 µmol/kg. In series [2], the result was Active. For the same compound, the Time in [6] and in series [8] was 0.5 h in each case.

Turning to `Cl.c1ccc(C2CN3CCCCC3CO2)cc1` (configuration not stated), the Activity in series [10] turned out to be 108.4 mmol/kg. Moreover, the result in series [12] and in series [3] was inactive. For the same compound, in series [2], the outcome was Active. In addition, the minimal effective dose in series [7] stood at 100 mg/kg.

On to `Cl.FC(F)(F)c1ccccc1C1CN2CCCCC2CO1` (configuration not stated), for which the minimal effective dose in series [16] stood at 300 mg/kg; in series [7], 30 mg/kg. In series [9], this compound had a TD50 of 716000 µmol/kg. For the same compound, in series [2], the result was Active. Further, the Time in [6] and in series [8] was 0.5 h throughout.
